According to patent publication US20250018019A1, “TREATMENT OF INTERFERON DRIVEN INFLAMMATION” (The Provost, Fellows, Foundation Scholars and the other …, priority 2023, published 2025):
Counter-ions that a name gives are not always drawn.

Assays:
Format in all cases: cell-based, mouse
BMDMs [1] = test: Digitonin fractionation, qPCR of mtDNA and mtRNA
Description: (§1) All compounds used DMSO as a vehicle except for 4-hydroxy tamoxifen (EtOH), NAC (PBS), and AOAA for tracing experiments (Media). LPS was used at a concentration of 100 ng/ml for indicated timepoints (2, 3, 4, 6, 8, 24, 48 h). FHIN1 (10 or 20 μM), MMF (50 or 100 μM), DMF (25 μM), AOAA (5 mM), oligomycin (10 μM), CCCP (50 μM) NAC (1 mM), and IMT1 (10 μM) pre-treatments were performed for 3 h prior the addition of LPS. Cells were treated with valinomycin (10 nM) 15 mins before LPS stimulation. Anti-CD210 or IgG control (10 μg/ml) antibodies were added to cells 1 h prior to LPS stimulation. Recombinant mouse IL-10 protein (100 ng/ml) was added to cells at the same time as LPS. Cells were treated with IFN-B1 (220 ng/ml) for 3 h. Cells were treated with C-178 (1 μM) 1 h prior to LPS stimulation or transfection with 2′3′-cGAMP (1.5 μg/ml) for 4 hrs to achieve cGAS-STING activation. Cells were treated with ODN 2088 (1 μM) for 1 hr prior to LPS stimulation or transfection with CPG ODN 1826 (1.5 μg/ml) to achieve TLR9 activation. 3 different timepoints of 4-hydroxy tamoxifen (TAM) (600 nM or 2 μM) or EtOH treatment were performed-these are specified in the individual figure legends. For ‘48 h’ treatments EtOH/TAM was added on day 5 of 6 during the BMDM differentiation protocol. On day 6 they were plated with EtOH/TAM (left overnight) and treated the following day. For ‘72 h’ treatments EtOH/TAM was added on day […] of 6 during the BMDM differentiation protocol. On day 6 they were plated with EtOH/TAM (left overnight) and treated the following day. For ‘96 h’ treatments EtOH/TAM was added on day […] of 6 during the BMDM differentiation protocol. On day 6 they were plated with EtOH/TAM and treated 2 days later.
BMDMs were plated at 0.5×10^6 cells/well and treated as desired. After treatment, cells were washed once with room temperature PBS, before being scraped on ice into ice cold PBS and pelleted at 500×g for 5 mins at 4° C. Supernatant was removed and discarded, and the pellet was resuspended in 400 μl extraction buffer (150 mM NaCl, 50 mM HEPES pH 7.4, 25 μg/ml digitonin). Samples were then placed in a rotating mixer at 4° C. for 10 mins before centrifugation at 2000×g at 4° C. for 5 mins. The resulting supernatant constituted the cytosolic fraction, from which RNA and DNA were isolated using an AllPrep DNA/RNA Mini Kit (Qiagen). Alternatively, the cytosolic fraction was concentrated using Strataclean Resin (Agilent) and analysed by western blot. The pellet constituted a fraction containing membrane-bound organelles which was lysed in RNA lysis buffer for RNA isolation or lysed in western blot lysis buffer for analysis by western blot. To determine the presence of mtRNA and mtDNA in the cytosol, qPCR was performed using primers specific for mitochondrial D-loop on cDNA which had been reverse-transcribed from RNA isolated from the cytosolic fraction (mtRNA) and on DNA isolated from the cytosolic fraction (mtDNA). In both cases, values were normalised using a housekeeping control gene (β-actin) amplified in cDNA which had been reverse-transcribed from RNA isolated from the membrane-bound fraction.

BMDMs [2] = test: Immunofluorescence, Mitotracker Red and dsRNA; conditions: LPS 4 h
Description: as §1
Cells were plated on 20 mm cover slips in 12-well plates. Cells were treated as required and Mitotracker Red CMXRos (100 nM, Thermo Fisher), was added to medium 30 mins prior to end of cell treatments. After 30 min incubation, cells were washed three times with warm PBS. Cells were subsequently fixed for 10 mins with 4% paraformaldehyde/PBS at 37° C. Cells were washed three times with PBS and permeabilized for 1 hour in block solution (1% BSA, 22.52 mg/ml glycine, 0.1% tween 20 in PBS). Anti-dsRNA antibody (Merck) was diluted 1/60 in block solution and incubated with cells overnight at room temperature. Cells were washed three times with PBS for 5 mins/wash. […] Images were analysed using the LAS X Life Science Microscope Software Platform (Leica). The same microscope instrument settings were used for all samples and all images were analysed using the same settings. […] Quantification of dsRNA or Mitotracker Red CMXRos signal intensity was performed using the measure function in ImageJ 1.53t (NIH).

MAVS = MAVS oligomerisation; conditions: BMDMs pre-treated, LPS 4 h
Description: BMDMs were plated at 1×10^6 cells/well in technical triplicate and treated as desired. After treatment, cells were washed twice with 200 μl cold PBS before being lysed in crosslinking lysis buffer (50 mM HEPES, 0.5% triton X-100, 1X protease inhibitor cocktail). Samples were placed on ice for 15 mins. Lysates were centrifuged for 15 mins at 6000×g at 4° C. and the supernatant was removed and frozen down as the ‘soluble fraction.’ 20 μl of the soluble fraction was mixed with 5 μl of sample lysis buffer (0.125 M Tris pH 6.8, 10% glycerol, 0.02% SDS, 5% DTT) and run on a 10% gel. The insoluble pellet was resuspended in HEPES (50 mM) and washed 3 times by centrifuging at 6000×g at 4° C. and removing the supernatant each time. After the final wash, the pellet was resuspended in 500 μl crosslinking buffer (50 mM HEPES, 150 mM NaCl) and disuccinimidyl suberate (DSS, Thermo Fisher, made up in anhydrous DMSO) was added to the final concentration of 2 mM. Immediately following the addition of DSS, the sample was inverted several times and incubated for 45 mins at 37° C. The sample was then centrifuged for 15 mins at 6000×g at 4° C., before the supernatant was removed and the pellet was resuspended in 30 μl sample lysis buffer. The resuspended ‘insoluble fraction’ was subsequently boiled for 5 mins at 95° C. before being run on a gel.

## CCOC(=O)[C@@]12CCCC=C1N(Cc1ccc(-c3ccccc3)cc1)C(=O)[C@H]2CC(=O)NC [FHIN1, Fumarate hydratase-IN-1]
BMDMs [1]; BMDMs pre-treated, LPS 4 h
  mtRNA in whole cell fraction: not in the whole cell fraction
BMDMs [1]; digitonin-fractionated BMDMs
  mtDNA in cytosolic extracts (D-loop): increase
  mtRNA in cytosolic extracts: increased
BMDMs [2]; BMDMs pre-treated 3 h
  staining intensity of mitotracker RED (mtRED), MMP-dependent dye: increased staining intensity
BMDMs [2]; BMDMs pre-treated, relative to DMSO control
  dsRNA accumulation (immunofluorescence): accumulation
MAVS
  MAVS oligomerisation: observed MAVS oligomerisation
